Assay results taken from patent USRE43879E1, “Use of the dextrogyral enantiomer of milnacipran for the preparation of a drug” (priority 2003, dated 2012).

Experiments:
primary rat hepatocytes [1] = experiment: Cytotoxicity test (MTT-assay) on primary rat hepatocytes; assay type: cell-based; details: 16 hours
Procedure: The […] and […] compounds, enantiomers of the racemic molecule […], as well as clomipramine, a reference product, (coded […] in the study) were assessed in the present study. The two enantiomers, […] and […], were first assessed in a preliminary cytotoxicity text (MTT-assay) on primary rat hepatocytes, in order to select the three concentrations to be used in the final test. The cells used in the study (preliminary MTT-assay of cytotoxicity and the main test) are cryopreserved hepatocytes from Sprague-Dawley rats in primary culture (batches Hep184005 and Hep184006-Biopredic), cultured under standard conditions. […] Formazan is solubilised in an organic solvent and the solution obtained can be measured by spectrophotometry. The absorbance measured is proportional to the number of surviving cells. The cells are put into contact with the product to be tested at […] (0-1-10-25-50 and 100 μM) for 16 hours. After this period of exposure, an MTT solution (0.5 mg/ml in the incubation medium of the primary hepatocytes) is added for 3 hours. After solubilisation of the formazan crystals, the multi-well plates are read with a spectrophotometer at 500 nm in order to determine the percentage of cell viability. These assays were performed in triplicate on primary rat hepatocytes exposed for 16 hours.

primary rat hepatocytes [2] = experiment: Safe-Hit genomic test of predictive toxicology (Toxicity Index) on primary rat hepatocytes; assay type: cell-based; details: 16 h
Text: After treatment of the primary rat hepatocytes in culture, the RNA was extracted in order to generate labelled complementary-DNA probes which were then hybridised on a membrane containing 682 alternatively-spliced fragments specific to cell stress. A Toxicity Index was obtained for each of the products by comparing the hybridisation profile of the treated cells with that of the untreated cells.
Safe-Hit allows molecules within a chemical series to be ranked according to a Toxic Index, determined after the following basic steps (systematically performed in duplicate for each product): • treatment of the cells lines with the various products at three different concentrations, deduced from a preliminary cytotoxicology test (MTT-assay): a reference concentration corresponding to 80% cell viability, a concentration 10-fold higher—when possible—and a concentration 10-fold lower, • preparation of total RNA and of the corresponding radio-labelled cDNA probes, • hybridisation of the cDNA probes: the Safe-Hit macroarray contains 682 independent clones, corresponding to alterations in gene splicing induced by overexpression of WTp53 (p53 is the most ubiquitous “mediator” of cell stress, chosen for the development of this methodology), • acquisition and determination of the Toxicity Index. 4.1.2. Cells
The cells used in the study (preliminary MTT-assay of cytotoxicity and the main test) are cryopreserved hepatocytes from Sprague-Dawley rats in primary culture (batches Hep184005 and Hep184006-Biopredic), cultured under standard conditions.
The cells are seeded and cultured for 16 hours with each product, at the three concentrations chosen on the basis of the preliminary MTT-assay; two controls (untreated cells in solvent alone) are added to the series.
The results of the two Safe-Hit analyses are then compared and combined to assess the potential toxicity of the various compounds tested. Two parameters that can be modified by the user are involved in the calculation of the Toxicity Index: • Background Threshold (BT) smoothes out weak signals, close to background noise and not attributable to significant gene expression. […] The value of this parameter is usually 2 or less than 2 in order to obtain relevant results. […]
Toxicity Indices (TI) were determined as described above. […] Two separate analyses were performed using two levels of differentiation (Induction Factor-IF) in relation to the untreated controls: • a factor of at least 1.7 in relation to the untreated controls. This factor of 1.7 times represents the weakest value that allows an index not to be obtained in relation to the two untreated controls. • a factor of at least 2 in relation to the untreated controls. This factor of 2 times allows the most robust signals to be taken into account. 4.3.1. Induction Factor of 1.7 in Relation to Untreated Control (Table 7)

CN(C)CCCN1c2ccccc2CCc2ccc(Cl)cc21 [C218, clomipramine]
Toxicity in MTT-assay (primary rat hepatocytes [1]; 25 μM): no toxicity was observed | Cell viability in MTT-assay (primary rat hepatocytes [1]; 50 μM): greater than 80% | Cytotoxicity / cell viability in MTT-assay (primary rat hepatocytes [1]; 100 μM): no cell viability was observed | Clone A09 (H. sapiens mitochondrion, 12S), regulation factor vs untreated control (primary rat hepatocytes [2]; 1 μM): 2.90 | Clone AA11 (H. sapiens Repeat sequence AluJb fragment inserted into a cDNA coding for an unknown protein), regulation factor vs untreated control (primary rat hepatocytes [2]; 1 μM): 0.38 | Clone AC13 (H. sapiens 7S RNA L gene), regulation factor vs untreated control (primary rat hepatocytes [2]; 1 μM): 0.28 | Clone C01 (H. sapiens mitochondrion, 16S), regulation factor vs untreated control (primary rat hepatocytes [2]; 1 μM): 1.93 | Clone T08 (H. sapiens mRNA for KIAA1185 protein), regulation factor vs untreated control (primary rat hepatocytes [2]; 1 μM): 0.35 | Clone U04 (H. sapiens translation initiation factor elF-2alpha mRNA), regulation factor vs untreated control (primary rat hepatocytes [2]; 1 μM): 0.48 | Clone X02 (unk), regulation factor vs untreated control (primary rat hepatocytes [2]; 1 μM): 0.36 | Clone X06 (H. sapiens Genomic sequence from 9q34), regulation factor vs untreated control (primary rat hepatocytes [2]; 1 μM): 0.23 | Clone Z13 (unk), regulation factor vs untreated control (primary rat hepatocytes [2]; 1 μM): 0.34 | Clone A09 (H. sapiens mitochondrion, 12S), regulation factor vs untreated control (primary rat hepatocytes [2]; 10 μM): 2.23 | Clone AA11 (H. sapiens Repeat sequence AluJb fragment inserted into a cDNA coding for an unknown protein), regulation factor vs untreated control (primary rat hepatocytes [2]; 10 μM): 0.27 | Clone AC13 (H. sapiens 7S RNA L gene), regulation factor vs untreated control (primary rat hepatocytes [2]; 10 μM): 0.16 | Clone B20 (H. sapiens chromosome 19, BAC CIT-B-191n6), regulation factor vs untreated control (primary rat hepatocytes [2]; 10 μM): 0.14 | Clone B22 (H. sapiens Genomic sequence from 17), regulation factor vs untreated control (primary rat hepatocytes [2]; 10 μM): 0.17 | Clone C01 (H. sapiens mitochondrion, 16S), regulation factor vs untreated control (primary rat hepatocytes [2]; 10 μM): 1.82 | Clone E05 (H. sapiens DNA sequence from clone 740A11 on chromosome Xq22.2-23, part of COL4A5 gene), regulation factor vs untreated control (primary rat hepatocytes [2]; 10 μM): 0.22 | Clone E21 (H. sapiens ribosomal protein S14 gene), regulation factor vs untreated control (primary rat hepatocytes [2]; 10 μM): 0.56 | Clone M12 (H. sapiens mRNA; cDNA DKFZp564C1563), regulation factor vs untreated control (primary rat hepatocytes [2]; 10 μM): 0.16 | Clone T08 (H. sapiens mRNA for KIAA1185 protein), regulation factor vs untreated control (primary rat hepatocytes [2]; 10 μM): 0.14 | Clone U04 (H. sapiens translation initiation factor elF-2alpha mRNA), regulation factor vs untreated control (primary rat hepatocytes [2]; 10 μM): 0.22 | Clone X02 (unk), regulation factor vs untreated control (primary rat hepatocytes [2]; 10 μM): 0.24 | Clone X05 (H. sapiens microsomal epoxide hydrolase (EPHX) gene), regulation factor vs untreated control (primary rat hepatocytes [2]; 10 μM): 0.15 | Clone X06 (H. sapiens Genomic sequence from 9q34), regulation factor vs untreated control (primary rat hepatocytes [2]; 10 μM): 0.15 | Clone Z13 (unk), regulation factor vs untreated control (primary rat hepatocytes [2]; 10 μM): 0.29 | Clone A09 (H. sapiens mitochondrion, 12S), regulation factor vs untreated control (primary rat hepatocytes [2]; 100 μM): 2.14 | Clone AA11 (H. sapiens Repeat sequence AluJb fragment inserted into a cDNA coding for an unknown protein), regulation factor vs untreated control (primary rat hepatocytes [2]; 100 μM): 0.31 | Clone AA13 (H. sapiens 18S rRNA gene), regulation factor vs untreated control (primary rat hepatocytes [2]; 100 μM): 1.79 | Clone AC13 (H. sapiens 7S RNA L gene), regulation factor vs untreated control (primary rat hepatocytes [2]; 100 μM): 0.28 | Clone B20 (H. sapiens chromosome 19, BAC CIT-B-191n6), regulation factor vs untreated control (primary rat hepatocytes [2]; 100 μM): 0.27 | Clone B22 (H. sapiens Genomic sequence from 17), regulation factor vs untreated control (primary rat hepatocytes [2]; 100 μM): 0.32 | Clone C01 (H. sapiens mitochondrion, 16S), regulation factor vs untreated control (primary rat hepatocytes [2]; 100 μM): 1.91 | Clone E01 (H. sapiens mRNA for lipocortin II), regulation factor vs untreated control (primary rat hepatocytes [2]; 100 μM): 1.73 | Clone E05 (H. sapiens DNA sequence from clone 740A11 on chromosome Xq22.2-23, part of COL4A5 gene), regulation factor vs untreated control (primary rat hepatocytes [2]; 100 μM): 0.35 | Clone E19 (H. sapiens mitochondrion, cytochrome c oxidase subunit 1), regulation factor vs untreated control (primary rat hepatocytes [2]; 100 μM): 1.72 | Clone E21 (H. sapiens ribosomal protein S14 gene), regulation factor vs untreated control (primary rat hepatocytes [2]; 100 μM): 0.58 | Clone F24 (H. sapiens LIM homeobox protein cofactor (CLIM-1) mRNA), regulation factor vs untreated control (primary rat hepatocytes [2]; 100 μM): 0.52 | Clone G01 (H. sapiens estrogen receptor-related protein (variant ER from breast cancer) mRNA), regulation factor vs untreated control (primary rat hepatocytes [2]; 100 μM): 2.04 | Clone G05 (H. sapiens mitochondrion, cytochrome c oxidase subunit 1), regulation factor vs untreated control (primary rat hepatocytes [2]; 100 μM): 2.02 | Clone G09 (H. sapiens mitochondrion, cytochrome b), regulation factor vs untreated control (primary rat hepatocytes [2]; 100 μM): 1.76 | Clone I18 (H. sapiens 18S rRNA gene), regulation factor vs untreated control (primary rat hepatocytes [2]; 100 μM): 1.88 | Clone L23 (H. sapiens cDNA NIH_MGC_16 clone IMAGE: 3350241 5′, mRNA sequence), regulation factor vs untreated control (primary rat hepatocytes [2]; 100 μM): 1.75 | Clone M07 (H. sapiens mitochondrion, cytochrome c oxidase subunit 1), regulation factor vs untreated control (primary rat hepatocytes [2]; 100 μM): 1.75 | Clone M12 (H. sapiens mRNA; cDNA DKFZp564C1563), regulation factor vs untreated control (primary rat hepatocytes [2]; 100 μM): 0.39 | Clone Q11 (unk), regulation factor vs untreated control (primary rat hepatocytes [2]; 100 μM): 1.92 | Clone S01 (Mus muculus TCR beta locus), regulation factor vs untreated control (primary rat hepatocytes [2]; 100 μM): 2.98 | Clone T08 (H. sapiens mRNA for KIAA1185 protein), regulation factor vs untreated control (primary rat hepatocytes [2]; 100 μM): 0.22 | Clone U04 (H. sapiens translation initiation factor elF-2alpha mRNA), regulation factor vs untreated control (primary rat hepatocytes [2]; 100 μM): 0.37 | Clone X02 (unk), regulation factor vs untreated control (primary rat hepatocytes [2]; 100 μM): 0.31 | Clone X05 (H. sapiens microsomal epoxide hydrolase (EPHX) gene), regulation factor vs untreated control (primary rat hepatocytes [2]; 100 μM): 0.24 | Clone X06 (H. sapiens Genomic sequence from 9q34), regulation factor vs untreated control (primary rat hepatocytes [2]; 100 μM): 0.23 | Clone Z13 (unk), regulation factor vs untreated control (primary rat hepatocytes [2]; 100 μM): 0.27 | Clone Z20 (Homo sapiens cDNA wc44h09, similar to RAS_RELATED PROTEIN RAB-24, mRNA sequence), regulation factor vs untreated control (primary rat hepatocytes [2]; 100 μM): 0.57 | Number of down-regulated clones (Down) (primary rat hepatocytes [2]; Induction Factor 1.7, 1 μM): 7 | Number of up-regulated clones (Up) (primary rat hepatocytes [2]; Induction Factor 1.7, 1 μM): 2 | Toxicity Index (TI, number of signatures) (primary rat hepatocytes [2]; Induction Factor 1.7, 1 μM): 9 | Number of down-regulated clones (Down) (primary rat hepatocytes [2]; Induction Factor 1.7, 10 μM): 13 | Number of up-regulated clones (Up) (primary rat hepatocytes [2]; Induction Factor 1.7, 10 μM): 2 | Toxicity Index (TI, number of signatures) (primary rat hepatocytes [2]; Induction Factor 1.7, 10 μM): 15 | Toxicity Index (TI, number of signatures) (primary rat hepatocytes [2]; Induction Factor 1.7, 50 μM): 28 | Number of down-regulated clones (Down) (primary rat hepatocytes [2]; Induction Factor 1.7, 100 μM): 15 | Number of up-regulated clones (Up) (primary rat hepatocytes [2]; Induction Factor 1.7, 100 μM): 13 | Toxicity Index (TI, number of signatures) (primary rat hepatocytes [2]; Induction Factor 1.7, 100 μM): 28 | Number of down-regulated clones (Down) (primary rat hepatocytes [2]; Induction Factor 2, 1 μM): 7 | Number of up-regulated clones (Up) (primary rat hepatocytes [2]; Induction Factor 2, 1 μM): 1 | Toxicity Index (TI, number of signatures) (primary rat hepatocytes [2]; Induction Factor 2, 1 μM): 8 | Number of down-regulated clones (Down) (primary rat hepatocytes [2]; Induction Factor 2, 10 μM): 12 | Number of up-regulated clones (Up) (primary rat hepatocytes [2]; Induction Factor 2, 10 μM): 1 | Toxicity Index (TI, number of signatures) (primary rat hepatocytes [2]; Induction Factor 2, 10 μM): 13 | Toxicity Index (TI, number of signatures) (primary rat hepatocytes [2]; Induction Factor 2, 50 μM): 16 | Number of down-regulated clones (Down) (primary rat hepatocytes [2]; Induction Factor 2, 100 μM): 12 | Number of up-regulated clones (Up) (primary rat hepatocytes [2]; Induction Factor 2, 100 μM): 4 | Toxicity Index (TI, number of signatures) (primary rat hepatocytes [2]; Induction Factor 2, 100 μM): 16
